Data: patent US12633374B2, “Method for determining efficacy of chemotherapy treatment for a subject” (RNA Diagnostics Inc., priority 2012, dated 2026)

How the values were obtained:
[1] = system: Colon adenocarcinoma cells LS174T; assay: RNA disruption in LS174T cells; type: cell-based; conditions: 24 hr, FIG. 20A
Description: Colon adenocarcinoma cells LS174T were incubated with Sunitinib, a receptor tyrosine kinase inhibitor. RNA was isolated from the cells and analyzed using an Agilent Bioanalyzer.
RNA was isolated from the cells and analyzed using an Agilent Bioanalyzer.

tumour sample = assay: Maximal RDI score in tumour biopsies of patients on neo-adjuvant Zometa; type: in vivo, human; conditions: after the first cycle, FIG. 17C and 17D
Description: Biopsy samples were obtained from patients undergoing neo-adjuvant therapy with Zometa. RNA was isolated and analyzed using the Agilent Bioanalyzer. Electropherograms were analyzed using the methods 100 and 400 and the maximal RDI score was graphed for each tumour sample at each time-point.

[2] = system: Colon adenocarcinoma cells SW480; assay: RNA disruption in SW480 cells; type: cell-based; conditions: 72 hr, FIG. 20C
Description: Colon adenocarcinoma cells SW480 were incubated with Epirubicin, a DNA synthesis inhibitor. RNA was isolated from the cells and analyzed using an Agilent Bioanalyzer. RNA Disruption is evident at 72 hr at […] (see FIG. 20C).

[3] = system: A2780 ovarian cancer cells; assay: RNA disruption in drug-treated A2780 cells (Agilent Bioanalyzer electropherogram/gel); type: cell-based, human; conditions: for RNA electropherogram banding pattern: 24 hours at 37° C.; for Low C Area/(28S+18S) vs docetaxel dose: method 400
Description: RNA was isolated from ovarian cancer cell line A2780 cells which had been treated with 10 μM docetaxel in 50% media or 20 μM epirubicin, each in 50% media. Cells were treated with the chemotherapeutic for 24 hours at 37° C. Isolated RNA was separated by microcapillary electrophoresis using the Agilent 2100 Bioanalyzer.
Cells were plated and treated with docetaxel concentrations ranging from 0.001-40 μM for 24 to 72 hours to assess the effect on cell number, RNA content, and integrity (measured using a Bioanalyzer 2100 from Agilent Technologies, Inc.).
RNA was isolated and electrophoretically separated on an Agilent Bioanalyzer. As shown in FIG. 9D bands appeared just below the 28S (e.g. intermediate) and 18S bands (e.g. low banding region) at 0.005 uM and peaked at 0.2 uM.
A time course experiment was conducted in A2780 cells. Cells were treated for up to 72 hours with docetaxel at 0.005 uM and 0.2 uM. RNA was isolated and run on an Agilent Bioanalyzer.
Plots of the combination of features Intermediate Area/(28S+18S) and Low C Area/(28S+18S) were generated using the method 400 although method 300 may also be used.

[4] = system: Jurkat T leukemia cell line; conditions: Fimognari et al 2009; cited from earlier work
[5] = system: A2780 ovarian cancer cells; assay: Amount of RNA per cell in A2780 cells treated with docetaxel; type: cell-based, human
Description: A2780 cells treated for up to 72 hours with docetaxel at 0.005 uM and 0.2 uM, were analyzed for the amount of RNA per cell. RNA was isolated and electophoretically separated using an Agilent Bioanalyzer.

[6] = system: docetaxel-resistant A2780DXL cells; assay: RNA disruption in docetaxel-resistant A2780 cells; type: cell-based, human
Description: A docetaxel A2780 resistant cell line was made as described in Li et al., Int. J. Mol. Med 2004 14(20): 257-264.
A time course experiment was conducted. Sensitive parental and docetaxel resistant A2780 cells were treated with docetaxel for 24 hours. RNA was isolated and run on an Agilent Bioanalyzer.

A2780 cells = assay: Recovery Assay after docetaxel treatment; type: cell-based, human; conditions: 0.2 uM docetaxel up to 72 hours, washed, replated in drug-free media, FIG. 9C
Description: A Recovery Assay was next carried out to determine if A2780 cells could recover from treatment with 0.2 uM docetaxel. A2780 cells were treated with 0.2 uM docetaxel for up to 72 hours and then washed and replated in drug-free media.

[7] = system: A2780 ovarian cancer cells; assay: Cell counts of A2780 cells treated with docetaxel; conditions: up to 72 hours, FIG. 9A
Description: A2780 cells were treated for up to 72 hours with docetaxel at 0.005 uM and 0.2 uM. Cell counts were measured at each time-point.

xenograft tumours = assay: RNA from docetaxel-treated xenograft tumours after storage in liquid nitrogen or saline (Agilent 2100 Bioanalyzer); type: in vivo; design: 18S Area / 28S Area / RNA Area: unit not given here
Description: RNA isolated from xenograft tumours stored in liquid nitrogen, RNALater™ solution or left in saline for 1h, 2h, 5h and 24h to induce autocatalytic degradation was analyzed by measuring an RNA Integrity Number (RIN) using Agilent 2100 Bioanalyzer. […] Circles above the gel lanes indicate that an RIN number could be calculated (FIG. 8A). Circles encapsulated by squares indicate samples for which an RIN number could not be calculated. Control samples were untreated xenograft tumours (1-7). Treated samples (8-12) were given docetaxel. Various measurements for the data shown in FIGS. 8B-8M follow in Tables 3.1 to 3.12.

[8] = system: A2780 ovarian cancer cells; assay: Effect of caspase inhibitor on RNA integrity changes in docetaxel-treated cells; type: cell-based, human; conditions: FIG. 9J
Description: The effect of a caspase inhibitor on RNA integrity changes was next assessed. Cells were treated with or without docetaxel at a concentration of 0.2 uM in the presence or absence of the caspase inhibitor Q-DEVD-OPH (Biovision Laboratories) at a concentration of 10 uM.

[9] = tumour left in saline 1h, sample 9
[10] = tumour left in saline 2h, sample 10
[11] = tumour left in saline 5h, sample 11
[12] = tumour left in saline 24h, sample 12
[13] = tumour stored in liquid nitrogen, sample 8

With `CCN(CC)CCNC(=O)c1c(C)[nH]c(/C=C2\C(=O)Nc3ccc(F)cc32)c1C` [Sunitinib] the “concentration at which RNA Disruption is evident” value [1] was 54 mM.

In the case of `O=P(O)(O)C(O)(Cn1ccnc1)P(=O)(O)O` [Zometa], the RDI values (tumour sample) is reported as “increased in some patients”.

With `COc1cccc2c1C(=O)c1c(O)c3c(c(O)c1C2=O)C[C@@](O)(C(=O)CO)C[C@@H]3O[C@H]1C[C@H](N)[C@@H](O)[C@H](C)O1` [epirubicin] the “concentration at which RNA Disruption is evident” value [2] was 0.5 mM and the “RNA electropherogram banding pattern” value ([3]; epirubicin 20 μM in 50% media, FIG. 3) was “intermediate bands between the 18S and 28S peaks”.

In the case of `COc1cccc2c1C(=O)c1c(O)c3c(c(O)c1C2=O)C[C@@](O)(C(=O)CO)C[C@@H]3O[C@H]1C[C@H](N)[C@H](O)[C@H](C)O1` [doxorubicin], the “susceptibility of total RNA to chemical attack” value [4] is given as “susceptible to chemical attack”.

For `CC(=O)O[C@@]12CO[C@@H]1C[C@H](O)[C@@]1(C)C(=O)[C@H](O)C3=C(C)[C@@H](OC(=O)[C@H](O)[C@@H](NC(=O)OC(C)(C)C)c4ccccc4)C[C@@](O)([C@@H](OC(=O)c4ccccc4)[C@H]21)C3(C)C` [docetaxel], the “amount of RNA per cell” value ([5]; docetaxel 0.005 uM and 0.2 uM, up to 72 hours, FIG. 9B) was “increase in a time-dependent and dose-dependent manner”, the “RNA content per cell” value ([5]; low docetaxel concentrations) was “increased per cell” and the “RNA disruption and cellular RNA content” value ([6]; A2780DXL cells treated with docetaxel) was “did not result in RNA disruption or changes in cellular RNA content”. The “RNA banding below the 28S and 18S bands” value ([6]; resistant cells, docetaxel 24 hours, FIG. 9I) was “no banding is evident”, the “resumption of cell proliferation after drug withdrawal” value (A2780 cells) was “No resumption of cell proliferation” and the “docetaxel concentrations at which cell numbers remained constant” value [7] was “greater than or equal to 0.005 uM”. The “Low C Area/(28S+18S) vs docetaxel dose” value ([3]; 8 hr, 24 hr, or 48 hr) was “Little change”, the “docetaxel concentration at which banding below 28S and 18S peaked” value ([3]; 24 hours, 0 to 40 uM, FIG. 9D) was 0.2 µM and the “docetaxel concentration at which bands appeared just below the 28S and 18S bands” value ([3]; 24 hours, 0 to 40 uM, FIG. 9D) was 0.005 µM. For the same compound, the “docetaxel concentration at which additional bands are visible on gel” value ([3]; FIG. 9D, 24 hours) was 0.05 µM, the “docetaxel concentrations giving dose and time-dependent reductions in cell number and cell RIN values while RDI increased” value ([3]; RDI = Intermediate Area/(28S+18S)) was at least 0.1 µM and the “Low C Area/(28S+18S) vs docetaxel dose” value ([3]; after 72 hr) was “dramatic increase”. The “Intermediate/(28S+18S)” value ([3]; docetaxel 0.005 uM and 0.2 uM, 24 to 72 hours, FIG. 9F) was “increases dramatically with time”, the “Low banding area/(28S+18S)” value ([3]; docetaxel 0.005 uM and 0.2 uM, 24 to 72 hours, FIG. 9G) was “also increases with time” and the “RNA banding in time course” value ([3]; docetaxel 0.005 uM and 0.2 uM, up to 72 hours, FIG. 9H) was “banding appears below the 28S and 18S bands at all time-points”. For the same compound, the “RNA electropherogram banding pattern” value ([3]; docetaxel 10 μM in 50% media, FIG. 2) was “shows an intermediate peak and a peak adjacent to the 18S peak”, the RIN ([3]; docetaxel concentrations ≥0.005 uM) was “did not change significantly” and the “docetaxel concentration at which banding appears below the 28S and 18S bands” value ([3]; sensitive parental cells, 24 hours, FIG. 9I) was 0.005 µM. For the same compound, the “18S % of total Area” value (xenograft tumours; [9]) was 8.3%, the “18S Area” value (xenograft tumours; [9]) was 13.2 and the “28S % of total Area” value (xenograft tumours; [9]) was 6.4%. For the same compound, the “28S Area” value (xenograft tumours; [9]) was 10.2, the “RNA Area” value (xenograft tumours; [9]) was 158.5 and the “RNA Concentration” value (xenograft tumours; [9]) was 85 ng/µL. The “rRNA Ratio [28 s/18 s]” value (xenograft tumours; [9]) was 0.8, the “18S % of total Area” value (xenograft tumours; [10]) was 9.8% and the “18S Area” value (xenograft tumours; [10]) was 27.3. For the same compound, the “28S % of total Area” value (xenograft tumours; [10]) was 6.6%, the “28S Area” value (xenograft tumours; [10]) was 18.5 and the “RNA Area” value (xenograft tumours; [10]) was 278.5. The “RNA Concentration” value (xenograft tumours; [10]) was 150 ng/µL, the “RNA Integrity Number (RIN)” value (xenograft tumours; [10]) was 6.5 (B.02.06) and the “RNA Ratio [28 s/18 s]” value (xenograft tumours; [10]) was 0.7. For the same compound, the “18S % of total Area” value (xenograft tumours; [11]) was 6.5%, the “18S Area” value (xenograft tumours; [11]) was 15.4 and the “28S % of total Area” value (xenograft tumours; [11]) was 6.6%. For the same compound, the “28S Area” value (xenograft tumours; [11]) was 15.4, the “RNA Area” value (xenograft tumours; [11]) was 235.4 and the “RNA Concentration” value (xenograft tumours; [11]) was 127 ng/µL. For the same compound, the “rRNA Ratio [28 s/18 s]” value (xenograft tumours; [11]) was 1.0, the “18S % of total Area” value (xenograft tumours; [12]) was 1.1% and the “18S Area” value (xenograft tumours; [12]) was 1.9. For the same compound, the “RNA Area” value (xenograft tumours; [12]) was 168.9, the “RNA Concentration” value (xenograft tumours; [12]) was 91 ng/µL and the “RNA Integrity Number (RIN)” value (xenograft tumours; [12]) was 2.7 (B.02.06). For the same compound, the “rRNA Ratio [28 s/18 s]” value (xenograft tumours; [12]) was 0.0, the “18S % of total Area” value (xenograft tumours; [13]) was 18.4% and the “18S Area” value (xenograft tumours; [13]) was 46.1. The “28S % of total Area” value (xenograft tumours; [13]) was 21.8%, the “28S Area” value (xenograft tumours; [13]) was 54.6 and the “RNA Area” value (xenograft tumours; [13]) was 250.5. For the same compound, the “RNA Concentration” value (xenograft tumours; [13]) was 135 ng/µL, the “RNA Integrity Number (RIN)” value (xenograft tumours; [13]) was 9.1 (B.02.06) and the “rRNA Ratio [28 s/18 s]” value (xenograft tumours; [13]) was 1.2.

For Q-DEVD-OPH, the “bands below the 28S and 18S bands” value ([8]; 0.2 uM docetaxel with or without 10 uM caspase inhibitor) was “detectable in the presence and absence” and the “effect on loss of 28S and 18S bands” value ([8]; 10 uM inhibitor with 0.2 uM docetaxel, 72 hr) was “reduces the loss of 28S and 18S bands”.
